Experimental data as given in patent US20060030608A1, “Anti aromatase compounds pharmaceutical compositions and uses thereof” (Boehringer Ingelheim Pharmaceuticals, Inc., priority 2004, published 2006).

biological target: T1, recombinant human aromatase (CYP19) (Homo sapiens, UniProt P11511); test: aromatase (CYP19) inhibition assay, fluorometric substrate dibenzylfluorescein (DBF); format: biochemical; conditions: recombinant human aromatase (baculovirus/insect cell expressed), test compounds 2×10^−5 to 10^−9 M, 37° C. for 30 minutes
T1 construct: purchased GENTEST 456260; host or cells: baculovirus/insect cells
T1 sequence (P11511 1-503): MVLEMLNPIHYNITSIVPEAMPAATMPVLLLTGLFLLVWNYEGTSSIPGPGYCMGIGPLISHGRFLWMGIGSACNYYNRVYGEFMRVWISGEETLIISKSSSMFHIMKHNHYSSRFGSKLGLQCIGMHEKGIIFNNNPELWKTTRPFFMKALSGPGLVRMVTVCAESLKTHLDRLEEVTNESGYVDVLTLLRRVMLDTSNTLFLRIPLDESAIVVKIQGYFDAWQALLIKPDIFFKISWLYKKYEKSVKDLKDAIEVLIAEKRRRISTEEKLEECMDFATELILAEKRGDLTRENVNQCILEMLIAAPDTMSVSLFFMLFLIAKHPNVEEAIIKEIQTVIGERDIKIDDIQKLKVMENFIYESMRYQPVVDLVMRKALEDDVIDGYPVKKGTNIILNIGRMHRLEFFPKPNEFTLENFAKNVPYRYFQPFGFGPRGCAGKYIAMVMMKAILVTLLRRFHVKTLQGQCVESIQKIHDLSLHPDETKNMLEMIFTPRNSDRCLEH
Experimental: Compounds of the invention were evaluated for inhibiting aromatase enzyme using the following aromatase (CYP19) inhibition assay which detects aromatase inhibitors utilizing recombinant human aromatase (baculovirus/insect cell expressed) and the fluorometric substrate dibenzylfluorescein (DBF). Aromatase will metabolize DBF to fluorescein which will give the fluorescent signal. The assay is conducted in 96-well black, Falcon plate (BD Biosciences, Cat. No. 353241) in the total volume of 100 μL per well. 40 μL of the Cofactor/Dilution buffer (1) is added to the plate followed by 10 μL of serially diluted test compounds in duplicates for final concentration of 2×10^−5 to 10^−9 M, or 10 μL of phosphate buffer for positive and background control wells. After 10 minutes of preincubation at 37° C., the reaction is initiated by adding 50 μL of prewarmed Enzyme/Substrate Mix (2) to the test compound wells, and positive control wells (maximum activity of CYP19, which represents 100%). The plate is incubated at 37° C. for 30 minutes. To stop the reaction, 37.5 μL of 2 N NaOH is added to all wells. For background controls, 50 μL of Enzyme/Substrate Mix (2) are added into background control wells. The plate is left at 37° C. incubator for 2 hours to develop adequate signal to background ratio. Fluorescence per well is measured in the fluorescent plate reader. The metabolite concentration is measured using excitation wavelength of 485 nm and emission wavelength of 538 nm. Inhibition of aromatase by test compounds is expressed in percentage relative to positive controls. IC50 values for the test compounds are derived from non-liner curve fitting. • (1) Cofactor/Dilution buffer: 50 mM phosphate buffer, pH=7.4; 1× NADPH regenerating system A (20× stock, GENTEST, Cat. No. 451220); 1× NAPDH regenerating system B (100× stock, GENTEST, Cat. No. 451200) and 0.2 mg/mL control protein (Insect Cell Control Supersomes, GENTEST, Cat. No. 456200) • (2) Enzyme/Substrate Mix: 50 mM phosphate buffer, pH=7.4, 0.02 nmole/mL human aromatase protein (Human CYP19+P450 Reductase Supersomes, GENTEST, Cat. No. 456260); 0.4 μM dibenzylfluorescein (DBF, GENTEST, Cat. No. 451750, prepared at 2 mM concentration in acetonitrile); 0.5 mg/mL control protein (Insect Cell Control Supersomes, GENTEST, Cat. No. 456200).

Row | Structure (SMILES) | aromatase inhibition
1 | COc1ccc(F)cc1C(C)(C)CC(O)(Cc1[nH]c2ccncc2c1CN(C)C)C(F)(F)F (stereo not drawn) [2-(3-Dimethylaminomethyl-1H-pyrrolo[3,2-c]pyridin-2-ylmethyl)-1,1,1-trifluoro-4-(5-fluoro-2-methoxyphenyl)-4-methylpentan-2-ol] | showed aromatase inhibition
2 | COc1ccc(F)cc1C(C)(C)CC(O)(Cc1cc2ccncc2[nH]1)C1CC1 (stereo not drawn) [2-Cyclopropyl-4-(5-fluoro-2-methoxyphenyl)-4-methyl-1-(1H-pyrrolo[2,3-c]pyridin-2-yl)pentan-2-ol] | showed aromatase inhibition
3 | Cc1ccc(F)cc1C(C)(C)CC(O)(Cc1cc2ccncc2[nH]1)C1CC1 (stereo not drawn) [2-Cyclopropyl-4-(5-fluoro-2-methylphenyl)-4-methyl-1-(1H-pyrrolo[2,3-c]pyridin-2-yl)pentan-2-ol] | showed aromatase inhibition
4 | Cc1ccc(F)cc1C(C)(C)CC(O)(Cc1cc2cnccc2[nH]1)C1CC1 (stereo not drawn) [2-Cyclopropyl-4-(5-fluoro-2-methylphenyl)-4-methyl-1-(1H-pyrrolo[3,2-c]pyridin-2-yl)pentan-2-ol] | showed aromatase inhibition
5 | CC(C)(CC(O)(Cc1cc2ccncc2[nH]1)C(F)(F)F)c1cccc2c1OCC2 (stereo not drawn) [4-(2,3-Dihydrobenzofuran-7-yl)-1,1,1-trifluoro-4-methyl-2-(1H-pyrrolo[2,3-c]pyridin-2-ylmethyl)pentan-2-ol] | showed aromatase inhibition
6 | CC(C)(CC(O)(Cc1cc2cnccc2[nH]1)C(F)(F)F)c1cccc2c1OCC2 (stereo not drawn) [4-(2,3-Dihydrobenzofuran-7-yl)-1,1,1-trifluoro-4-methyl-2-(1H-pyrrolo[3,2-c]pyridin-2-ylmethyl)pentan-2-ol] | showed aromatase inhibition
7 | CC(C)(CC(O)(Cc1cc2ccncc2[nH]1)C1CC1)c1cc(Cl)cc2c1OCC2 (stereo not drawn) [4-(5-Chloro-2,3-dihydrobenzofuran-7-yl)-2-cyclopropyl-4-methyl-1-(1H-pyrrolo[2,3-c]pyridin-2-yl)pentan-2-ol] | showed aromatase inhibition
8 | CC(C)(CC(O)(Cc1cc2cnccc2[nH]1)C1CC1)c1cc(Cl)cc2c1OCC2 (stereo not drawn) [4-(5-Chloro-2,3-dihydrobenzofuran-7-yl)-2-cyclopropyl-4-methyl-1-(1H-pyrrolo[3,2-c]pyridin-2-yl)pentan-2-ol] | showed aromatase inhibition
9 | CC(C)C(O)(Cc1cc2ccncc2[nH]1)CC(C)(C)c1cc(Cl)cc2c1OCC2 (stereo not drawn) [5-(5-Chloro-2,3-dihydrobenzofuran-7-yl)-2,5-dimethyl-3-(1H-pyrrolo[2,3-c]pyridin-2-ylmethyl)hexan-3-ol] | showed aromatase inhibition
10 | COc1ccc(F)cc1C(C)(C)CC(O)(Cc1cc2ccncc2[nH]1)C(C)(C)C (stereo not drawn) [5-(5-Fluoro-2-methoxyphenyl)-2,2,5-trimethyl-3-(1H-pyrrolo[2,3-c]pyridin-2-ylmethyl)hexan-3-ol] | showed aromatase inhibition
11 | COc1ccc(F)cc1C(C)(C)CC(O)(Cc1cc2cnccc2[nH]1)C(C)(C)C (stereo not drawn) [5-(5-Fluoro-2-methoxyphenyl)-2,2,5-trimethyl-3-(1H-pyrrolo[3,2-c]pyridin-2-ylmethyl)hexan-3-ol] | showed aromatase inhibition
12 | COc1ccc(F)cc1C(C)(C)CC(O)(Cc1cc2ccncc2[nH]1)C(C)C (stereo not drawn) [5-(5-Fluoro-2-methoxyphenyl)-2,5-dimethyl-3-(1H-pyrrolo[2,3-c]pyridin-2-ylmethyl)hexan-3-ol] | showed aromatase inhibition
13 | COc1ccc(F)cc1C(C)(C)CC(O)(Cc1cc2cnccc2[nH]1)C(C)C (stereo not drawn) [5-(5-Fluoro-2-methoxyphenyl)-2,5-dimethyl-3-(1H-pyrrolo[3,2-c]pyridin-2-ylmethyl)hexan-3-ol] | showed aromatase inhibition
14 | Cc1ccc(F)cc1C(C)(C)CC(O)(Cc1cc2ccncc2[nH]1)C(C)C (stereo not drawn) [5-(5-Fluoro-2-methylphenyl)-2,5-dimethyl-3-(1H-pyrrolo[2,3-c]pyridin-2-ylmethyl)hexan-3-ol] | showed aromatase inhibition
15 | CC(C)(CC(O)(Cc1cc2cnccc2[nH]1)C(F)(F)F)c1ccc(F)cc1O (stereo not drawn) [5-Fluoro-2-[4,4,4-trifluoro-3-hydroxy-1,1-dimethyl-3-(1H-pyrrolo[3,2-c]pyridin-2-ylmethyl)butyl]phenol] | showed aromatase inhibition
